In patent US11812774B2, “Composition for browning inhibition and use of same” (SUNTORY HOLDINGS LIMITED, priority 2016, dated 2023):

What was measured:
[1] = Accelerated aging of baicalin/epicatechin/glyoxal mixtures, visible absorption spectrum and residual catechin by LC-MS; conditions: 15 minutes
Experimental: The following three kinds of solutions were prepared. B+G: a mixture of baicalin (0.5 g/L) and glyoxal (0.01 g/L) B+C+G: a mixture of baicalin (0.5 g/L), epicatechin (0.5 g/L), and glyoxal (0.01 g/L) C+G: a mixture of epicatechin (0.5 g/L) and glyoxal (0.01 g/L)
These solutions were kept in an autoclave at 121° C. for 15 minutes for accelerated aging. After accelerated aging, changes in color were checked by visual observation, and further, the visible absorption spectrum was measured.
FIG. 10(a) is a picture showing the appearance of the mixture of baicalin and glyoxal (B+G), the mixture of baicalin, epicatechin, and glyoxal (B+C+G), and the mixture of epicatechin and glyoxal (C+G) after accelerated aging; and FIG. 10(b) is a diagram showing visible absorption spectra of the same (FIG. 10(a): picture, (b): visible absorption spectra). In FIG. 10(b), the solid line indicates the mixture (B+G), the dashed line indicates the mixture (B+C+G), and the long dashed dotted line indicates the mixture (C+G).
Further, after accelerated aging, the amount of epicatechin (the amount of a residual catechin) in the mixture (B+C+G) and the mixture (C+G) was measured by LC-MS under the same conditions as in Test Example 3.

[2] = Accelerated aging of epicatechin/glyoxal model solution, change in visible absorption spectrum; conditions: baicalin 0.5 g/L added to epicatechin 0.5 g/L + glyoxal 0.01 g/L; condition 3 (oxygen aeration, 123° C., 30 minutes); compared to no baicalin
Experimental: The preparation prepared above was subjected to an aging test under the following conditions, and then the visible absorption spectrum was measured. Condition 1: purged with nitrogen, stored at 4° C. for one hour Condition 2: stored at 121° C. for […] Condition 3: after oxygen aeration, stored at 123° C. for 30 minutes Baicalin (0.5 g/L) was added to a model solution obtained by mixing epicatechin (0.5 g/L) with glyoxal (0.01 g/L). The mixture was accelerated-aged under condition 3 (after oxygen aeration, stored at 123° C. for 30 minutes) in Test Example 2, and the amount of change in the visible absorption spectrum (ΔABU) before and after accelerated aging was calculated. FIG. 9 is a diagram showing changes in a visible absorption spectrum of the model solution by addition of baicalin.

[3] = LC-MS analysis of accelerated-aged mixture of baicalin and glyoxal; conditions: baicalin 0.5 g/L + glyoxal 0.01 g/L, condition 3 (oxygen aeration, 123° C., 30 min)
Experimental: A mixture (green tea model) of epicatechin (EC) (0.5 g/L) and glyoxal (0.01 g/L) was accelerated-aged under condition 3 (after oxygen aeration, stored at 123° C. for 30 minutes) in Test Example 2, and analyzed by LC-MS under the following conditions. • LC-MS measurement conditions • LC • Column: 2.5 Cholester (Nacalai Tesque, Inc.) (100 mmL.×2.0 I.D.) • Mobile phase: • A: 0.1% formic acid/H2O • B: 0.1% formic acid/CH3CN • Gradient elution method • Time program (concentration of B solution is expressed in percent by volume): B 5% (0-0.5 min)→B 32% (20 min)→B 100% (25-27.5 min)→B 5% (27.51-30 min) • Flow rate: 0.25 mL/min • Column temperature: 40° C. • Sample injection volume: 2 μL • MS • Probe voltage: +4.5 kV (ESI positive mode) • −3.5 kV (ESI negative mode) • Nebulizer gas flow rate: 1.5 L/min • Drying gas flow rate: 20 L/min • DL temperature: 250° C. • DL voltage/Q-array voltage: default value • SCAN: m/z 100-800 (positive, negative) • SIM: A mixture of baicalin (0.5 g/L) and glyoxal (0.01 g/L) was accelerated-aged under condition 3 (after oxygen aeration, stored at 30 min at 123° C.) of Test Example 2, and analyzed by LC-MS. LC-MS measurement conditions are the same as those in Test Example 5. […]

[4] = Experimental: A sample solution was prepared by dissolving a candidate substance in water to adjust the total phenol amount derived from the candidate substance to 600 ppm. The total phenol amount was measured by the Folin-Denis method, using gallic acid as a standard substance.
[5] = Aldehyde-scavenging substance screening (Br value and Xt value, 96-well microplate); conditions: sample solution 600 ppm total phenol; epicatechin + glyoxal; 70° C., 16 hours; Br and Xt values relative to negative control; N=3
Experimental: Aldehyde-scavenging ability of a candidate substance was evaluated based on how much the candidate substance added to a mixture of glyoxal (model aldehyde) and epicatechin (reaction substrate) can inhibit browning. The negative control was distilled water. As positive control, fractions 6, 7, and 8 (mixtures containing baicalin and baicalin glycosides (compounds containing one to three glucose molecules bonded to a sugar moiety of baicalin)) obtained in Preparation 1 were used.
A glyoxal aqueous solution (39% (v/v)) and epicatechin were used as reagents. […]
Accelerated aging was performed at 70° C. for 16 hours, and the area under the spectrum at 400 to 600 nm and the absorbance at 487 nm were measured.
The amount of change in the visible absorbance before and after accelerated aging was calculated. […] The Br value indicates the amount of change Δ in the area under the spectrum at 400 to 600 nm, and the Xt value indicates the amount of change Δ in the absorbance at 487 nm. […] In FIG. 14, the solid line indicates the absorbance when a substance having an aldehyde-scavenging effect (a substance having a browning-inhibiting effect) was added, and the dashed line indicates the absorbance of the negative control. […]

| SMILES | absorption at 487 nm after accelerated aging ([1]; B+C+G (baicalin 0.5 g/L, epicatechin 0.5 g/L, glyoxal 0.01 g/L) vs C+G, autoclave 121° C.) | amount of the residual catechin in a solution after accelerated aging ([1]; B+C+G vs C+G, 121° C., epicatechin by LC-MS) | amount of change in the visible absorption spectrum (ΔABU) before and after accelerated aging [2] | production of compound having a xanthylium structure (brown) by reaction with glyoxal [3] | water solubility [4] | aldehyde-scavenging ability [5] |
| --- | --- | --- | --- | --- | --- | --- |
| O=C(O)[C@H]1O[C@@H](Oc2cc3oc(-c4ccccc4)cc(=O)c3c(O)c2O)[C@H](O)[C@@H](O)[C@@H]1O [baicalin] | significantly reduces | increases | significantly reduced | No compound having a xanthylium structure that exhibits brown was detected | – | – |
| COc1ccc(-c2oc3c(CC=C(C)C)c(O[C@@H]4O[C@H](CO)[C@@H](O)[C@H](O)[C@H]4O)cc(O)c3c(=O)c2O[C@@H]2O[C@@H](C)[C@H](O)[C@@H](O)[C@H]2O)cc1 [icariin] | – | – | – | – | poor water solubility | confirmed |
| O=C(O)[C@H]1O[C@@H](Oc2cc3oc(-c4ccc(O)cc4)cc(=O)c3c(O)c2O)[C@H](O)[C@@H](O)[C@@H]1O [scutellarin] | – | – | – | – | – | confirmed |
